According to patent US4269843A, “N-Sec-alkyl analogs of norcodeine and normorphine and analgesic compositions and methods employing the normorphine derivatives” (priority 1980, dated 1981):

How the values were obtained:
mice [1] = assay: Mouse Jump Physical Dependence Assay; assay type: in vivo; conditions: for Total Number Mice Affected (Jumped): i.p., 30 min; for number of mice jumping / withdrawal symptoms (in words): Naloxone 100 mg/kg on day 4, 30 minutes
Excerpt: (§1) Using mice, the compounds of this invention were subjected to the Tail Flick Analgesic Assay, the Writhing Analgesic Assay, the Straub Tail Antagonist Assay and the Mouse Jump Physical Dependence Assay, said assays being described in the literature as follows:
Saelens, J. K., Granat, F. R. and Sawyer, W. K. Arch. int. Pharmacodyn 190, 213-218 (1971).
Using mice, tests were made to determine the physical dependence capacity of compounds 7(S) 7(R) and 9 as measured by the Mouse Jump Test, this being a simple screening method to estimate the physical dependence capacity of analgesics. In this mouse jumping test, the mice are injected (i.p.) 5× on day 1 with gradually increasing dosages ranging from 8 to 100 mg/kg of body weight. On days 2 and 3 the mice (in all except one test) were given 100 mg/kg 4×. In the one test, dosage was raised to 200-300 mg/kg on day 2 and to 300 mg/kg on day 3. On day 4 all the mice received one shot (100 mg/kg) of the antogonist Naloxone. Following this all mice were caged for 30 minutes and a record was made of the number of mice jumping during this interval.

mice [2] = assay: Straub Tail Antagonist Assay (morphine-injected mice); assay type: in vivo, mouse; conditions: for ED50: Mus musculus, dose which abolishes the response in 50% of the test mice, read-out: Inhibition of Straub tail response (ED50); for antagonist properties (in words): summary statement
Excerpt: as §1
Straub Tail Antagonist Assay
Blumberg, H. and Dayton, H. B. In Narcotic antagonists Advances in Biochemical Psychopharmacology, Vol. 8, Ed., Brande, M. C., Harris L. S.

mice [3] = assay: animal or person; assay type: in vivo; conditions: Mus musculus, ip, phenylquinone i.p., dose which eliminates any writhing in 50% of the treated mice
Excerpt: as §1
Blumberg, H., Wolf, P. S. and Dayton, H. B., Proc. soc. Exper. Biol. Med., 118, 763 (1965).
The ED50 values given in Table 1 below represent the dose (μM/kg) which eliminates any such writhing in 50% of the treated mice.

mice [4] = assay: animal or person; assay type: in vivo, mouse; conditions: for ED50: Mus musculus, mice, dose [micromoles per kg of body weight] which gives a group mean response time of 5 seconds, read-out: Tail Flick (ED50); for analgesic activity (in words): summary statement, mice tail flick and writhing assays
Excerpt: as §1
Tail Flick Analgesic Assay
D'Amour, F. E and Smith, D. L., J. Pharmacol. Exp. Therap. 72, 74-79 (1941)
Howes, J. F., Harris, L. S., Dewey, W. L. and Voyda, C. A., J. Pharmacol. Exp. Therap. 169, 23-28 (1969)
Dewey, W. L., Harris, L. S., Howes, J. F. and Nuite, J. A., J. Pharmacol. Exp. Therap. 175, 435-442 (1970)
The Tail Flick Analgesic Assay represents a test procedure in which heat from an intense light source is focused on the mouse's tail. When pain is detected by the mouse the tail gives a characteristic flicking response. In untreated controls the intervals from exposure to flick is about 2 seconds, while when using an effective analgesic the interval from exposure to flick is usually about 6 to 10 seconds. The ED50 values given in Table 1 below represent the dose [micromoles (μM) per kg of body weight] which gives a group mean response time of 5 seconds.

[5] = cited from earlier work; for analgesic / agonist activity (in words): literature
[6] = literature; cited from earlier work
[7] = 8-100 mg/kg day 1, 100 mg/kg days 2 and 3, 100 mg/kg Naloxone day 4, mice tested: 7(S) 20, 7(R) 12, 9 10, Morphine 10, Nalline 12

C=CCN1CC[C@]23c4c5ccc(O)c4O[C@H]2[C@@H](O)C=C[C@H]3[C@H]1C5 [Nalorphine, N-allylnormorphine, reference compound]
Total Number Mice Affected (Jumped) (mice [1]; [7]): 0-3 | number of mice jumping / withdrawal symptoms (in words) (mice [1]): very small | ED50 (mice [2]; mice injected with morphine): 1 µmol/kg

CC[C@H](C)N1CC[C@]23c4c5ccc(O)c4O[C@H]2[C@@H](O)C=C[C@H]3[C@H]1C5 [7(S), N-2-butylnormorphine]
Total Number Mice Affected (Jumped) (mice [1]; [7]): 2 | Total Number Mice Affected (Jumped) (mice [1]; 8-100 mg/kg day 1, 200-300 mg/kg day 2, 300 mg/kg day 3, 100 mg/kg Naloxone day 4, 10 mice tested): 1 | number of mice jumping / withdrawal symptoms (in words) (mice [1]): very small | ED50 (mice [3]): 11 µmol/kg | ED50 (mice [2]; mice injected with morphine): 7.4 µmol/kg | ED50 (mice [4]): 13.4 µmol/kg

CCC(CC)N1CC[C@]23c4c5ccc(O)c4O[C@H]2[C@@H](O)C=C[C@H]3[C@H]1C5 [Compound 10, N-3-pentylnormorphine]
ED50 (mice [3]): 2.3 µmol/kg | ED50 (mice [2]; mice injected with morphine): 17.2 µmol/kg | antagonist properties (in words) (mice [2]): antagonist properties indicative of low addiction potential | ED50 (mice [4]): 19.9 µmol/kg | analgesic activity (in words) (mice [4]): analgesic activities similar to morphine

CCCCCCN1CC[C@]23c4c5ccc(O)c4O[C@H]2[C@@H](O)C=C[C@H]3[C@H]1C5 [N-hexylnormorphine]
analgesic / agonist activity (in words) [5]: potent analgesic activity | antagonist activity (in words) [6]: devoid of antagonist properties

CN1CC[C@]23c4c5ccc(O)c4O[C@H]2[C@@H](O)C=C[C@H]3[C@H]1C5 [Morphine]
Total Number Mice Affected (Jumped) (mice [1]; [7]): 10 | number of mice jumping / withdrawal symptoms (in words) (mice [1]): all of the mice showed withdrawal symptoms | Inhibition of Straub tail response (result in words) (mice [2]; mice injected with morphine): No inhibition

C=C[C@@H](C)N1CC[C@]23c4c5ccc(O)c4O[C@H]2[C@@H](O)C=C[C@H]3[C@H]1C5 [8(R), N-α-methylallylnormorphine]
ED50 (mice [3]): 13 µmol/kg | ED50 (mice [2]; mice injected with morphine): 11 µmol/kg | ED50 (mice [4]): 44.5 µmol/kg

CCCCCN1CC[C@]23c4c5ccc(O)c4O[C@H]2[C@@H](O)C=C[C@H]3[C@H]1C5 [N-amyl-, N-amylnormorphine]
analgesic / agonist activity (in words) [5]: potent analgesic activity | antagonist activity (in words) [6]: devoid of antagonist properties

CC(C)=CCN1CCC2(C)c3cc(O)ccc3CC1C2C (stereo not shown) [pentazocine]
analgesic potency relative to morphine ([5]; fraction of the potency of morphine): about one-fourth | antagonist activity (in words) [6]: dual agonist-antagonist

CC(C)N1CC[C@]23c4c5ccc(O)c4O[C@H]2[C@@H](O)C=C[C@H]3[C@H]1C5 [N-isopropyl-normorphine]
analgesic / agonist activity (in words) [5]: not a good agonist | antagonist activity (in words) [6]: little, if any, antagonist qualities

COc1ccc2c3c1O[C@H]1[C@@H](O)C=C[C@H]4[C@@H](C2)N(C(C)C)CC[C@@]341 [N-isopropyl-norcodeine]
analgesic / agonist activity (in words) [5]: inactive

CCC(C)N1CC[C@]23c4c5ccc(O)c4O[C@H]2[C@@H](O)C=C[C@H]3[C@H]1C5 (stereo partly shown) [Compound 7, N-2-butylnormorphine]
antagonist properties (in words) (mice [2]): antagonist properties indicative of low addiction potential | analgesic activity (in words) (mice [4]): analgesic activities similar to morphine

CC(C1CC1)N1CC[C@]23c4c5ccc(O)c4O[C@H]2[C@@H](O)C=C[C@H]3[C@H]1C5 (stereo partly drawn) [Compound 9, N-α-methylcyclopropylmethylnormorphine]
Total Number Mice Affected (Jumped) (mice [1]; [7]): 1 | number of mice jumping / withdrawal symptoms (in words) (mice [1]): very small | ED50 (mice [3]): 0.69 µmol/kg | ED50 (mice [2]; mice injected with morphine): 4.5 µmol/kg | antagonist properties (in words) (mice [2]): antagonist properties indicative of low addiction potential | ED50 (mice [4]): 12.4 µmol/kg | analgesic activity (in words) (mice [4]): analgesic activities similar to morphine

CC(C)CN1CC[C@]23c4c5ccc(O)c4O[C@H]2[C@@H](O)C=C[C@H]3[C@H]1C5 [N-isobutylnormorphine]
antagonist activity (in words) [6]: morphine antagonists only

CC[C@@H](C)N1CC[C@]23c4c5ccc(O)c4O[C@H]2[C@@H](O)C=C[C@H]3[C@H]1C5 [7(R), N-2-butylnormorphine]
Total Number Mice Affected (Jumped) (mice [1]; [7]): 1 | number of mice jumping / withdrawal symptoms (in words) (mice [1]): very small | ED50 (mice [3]): 6.4 µmol/kg | ED50 (mice [2]; mice injected with morphine): 16.2 µmol/kg | ED50 (mice [4]): 19 µmol/kg

CCCN1CC[C@]23c4c5ccc(O)c4O[C@H]2[C@@H](O)C=C[C@H]3[C@H]1C5 [N-propyl normorphine]
antagonist activity (in words) [6]: morphine antagonists only

CCCCN1CC[C@]23c4c5ccc(O)c4O[C@H]2[C@@H](O)C=C[C@H]3[C@H]1C5 [N-butyl-, N-butylnormorphine]
analgesic / agonist activity (in words) [5]: potent analgesic activity | antagonist activity (in words) [6]: devoid of antagonist properties

C=CC(C)N1CC[C@]23c4c5ccc(O)c4O[C@H]2[C@@H](O)C=C[C@H]3[C@H]1C5 (stereo partly drawn) [Compound 8, N-α-methylallylnormorphine]
antagonist properties (in words) (mice [2]): antagonist properties indicative of low addiction potential | analgesic activity (in words) (mice [4]): analgesic activities similar to morphine
